Test results taken from patent US9663513B2, “Pyrimidine PDE10 inhibitors” (Merck Sharp & Dohme Corp., priority 2012, dated 2017).

Target: human PDE10A2 (Homo sapiens (Human), UniProt Q9Y233)
Test: PDE10 fluorescence polarization (IMAP FP) inhibition assay
Assay type: biochemical
Details: human PDE10A2 from transfected AD293 cells; FAM-labeled cAMP 50 nM; apparent inhibition constant; read-out: PDE10A Ki
Procedure, shortened: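 Cytoplasmic lysate of AD293 cells transiently expressing human PDE10A2 (enzyme level giving 20% conversion) incubated with 50 nM FAM-cAMP in pH 7.2 Tris/MgCl2 buffer, 30 min at room temperature. IMAP binding solution added, FP read after ≥1 h; 10-point 3-fold compound titrations fitted to a four-parameter equation.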

Sequence of human PDE10A2 (Q9Y233 267-1055): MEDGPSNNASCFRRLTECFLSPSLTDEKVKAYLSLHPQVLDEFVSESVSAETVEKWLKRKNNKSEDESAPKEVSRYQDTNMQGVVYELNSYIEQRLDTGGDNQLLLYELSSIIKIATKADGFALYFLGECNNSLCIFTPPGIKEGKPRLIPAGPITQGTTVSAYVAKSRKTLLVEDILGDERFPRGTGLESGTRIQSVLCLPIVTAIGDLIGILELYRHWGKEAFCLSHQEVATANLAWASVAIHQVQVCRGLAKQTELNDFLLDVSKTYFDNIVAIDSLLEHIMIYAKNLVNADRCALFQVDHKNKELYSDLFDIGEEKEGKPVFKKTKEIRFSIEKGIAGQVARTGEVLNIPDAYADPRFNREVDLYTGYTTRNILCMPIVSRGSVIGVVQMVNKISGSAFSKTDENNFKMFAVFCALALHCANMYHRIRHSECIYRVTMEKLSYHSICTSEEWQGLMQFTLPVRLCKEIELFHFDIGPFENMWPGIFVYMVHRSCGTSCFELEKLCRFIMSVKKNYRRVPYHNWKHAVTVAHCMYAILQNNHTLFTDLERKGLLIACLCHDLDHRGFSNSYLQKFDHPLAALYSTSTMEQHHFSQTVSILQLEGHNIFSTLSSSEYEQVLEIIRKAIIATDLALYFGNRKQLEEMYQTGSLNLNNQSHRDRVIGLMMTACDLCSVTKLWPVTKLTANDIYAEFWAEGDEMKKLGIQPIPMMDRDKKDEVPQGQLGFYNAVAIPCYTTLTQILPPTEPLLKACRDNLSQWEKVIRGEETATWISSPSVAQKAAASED

Row | Compound | Ki
1 | Cc1ccc([C@H]2C[C@@H]2COc2nc(C)ncc2-c2ccc(C(O)C(C)C)nc2)nc1 (stereo partly drawn) [Example 139, 2-methyl-1-(5-(2-methyl-4-(((1S,2S)-2-(5-methylpyridin-2-yl)cyclopropyl)methoxy)pyrimidin-5-yl)pyridin-2-yl)propan-1-ol] | 0.37 nM
2 | COc1ccc([C@H]2C[C@@H]2COc2nc(C)ncc2-c2ccc(-c3nnn(C)n3)cc2)nc1 [Example 223, 4-(((1S,2S)-2-(5-methoxypyridin-2-yl)cyclopropyl)methoxy)-2-methyl-5-(4-(2-methyl-2H-tetrazol-5-yl)phenyl)pyrimidine] | 2.02 nM
3 | Cc1ncc(C2CCC3(CC2)OCCO3)c(OC[C@H]2C[C@@H]2c2ccc3ccccc3n2)n1 [Example 190, 2-((1S,2S)-2-((2-methyl-5-(1,4-dioxaspiro[4.5]decan-8-yl)pyrimidin-4-yloxy)methyl)cyclopropyl)quinoline] | 0.06 nM
4 | COc1ccc([C@H]2C[C@@H]2COc2nc(C)ncc2-c2cc(=O)n(C)n2C)nc1 [Example 239, 5-(4-(((1S,2S)-2-(5-methoxypyridin-2-yl)cyclopropyl)methoxy)-2-methylpyrimidin-5-yl)-1,2-dimethyl-1,2-dihydropyrazol-3-one] | 7.7 nM
5 | CCc1ccc([C@H]2C[C@@H]2COc2nc(C)ncc2-c2cn(C)nc2C(C)O)nc1 (stereo partly drawn) [Example 162, 1-(4-(4-(((1S,2S)-2-(5-ethylpyridin-2-yl)cyclopropyl)methoxy)-2-methylpyrimidin-5-yl)-1-methyl-1H-pyrazol-3-yl)ethanol] | 0.13 nM
6 | COc1ccc([C@H]2C[C@@H]2COc2nc(C)ncc2C2CCC3(CC2)OCCO3)nc1 [Example 188, 4-(((1S,2S)-2-(5-methoxypyridin-2-yl)cyclopropyl)methoxy)-2-methyl-5-(1,4-dioxaspiro[4.5]decan-8-yl)pyrimidine] | 2.84 nM
7 | Cc1ccnc([C@H]2C[C@@H]2COc2nc(C)ncc2-c2ccc(C(C)(C)O)nc2)c1 (single isomer, unassigned) [Example 178] | 35.6 nM
8 | Cc1cccc([C@H]2C[C@@H]2COc2nc(C)ncc2C2CCC(=O)CC2)n1 [Example 187, 4-(2-methyl-4-(((1S,2S)-2-(6-methylpyridin-2-yl)cyclopropyl)methoxy)pyrimidin-5-yl)cyclohexanone] | 18.6 nM
9 | COc1ncccc1-c1cnc(C)nc1OC[C@H]1C[C@@H]1c1ccc(C)cn1 [Example 16, 5-(2-methoxypyridin-3-yl)-2-methyl-4-(((1S,2S)-2-(5-methylpyridin-2-yl)cyclopropyl)methoxy)pyrimidine] | 0.74 nM
10 | Cc1ccc([C@H]2C[C@@H]2COc2nc(C)ncc2-c2ccc(C)cc2C)nc1 [Example 2, 5-(2,4-dimethylphenyl)-2-methyl-4-(((1S,2S)-2-(5-methylpyridin-2-yl)cyclopropyl)methoxy)pyrimidine] | 2.44 nM
11 | Cc1ccc([C@H]2C[C@@H]2COc2nc(C)ncc2-c2ccc(OC(C)C)nc2C)nc1 [Example 61, 5-(6-isopropoxy-2-methylpyridin-3-yl)-2-methyl-4-(((1S,2S)-2-(5-methylpyridin-2-yl)cyclopropyl)methoxy)pyrimidine] | 1.51 nM
12 | COc1ccc([C@H]2C[C@@H]2COc2nc(C)ncc2-c2ccc(C(=O)NCC(F)(F)F)nc2)nc1 [Example 104, 5-(4-(((1S,2S)-2-(5-methoxypyridin-2-yl)cyclopropyl)methoxy)-2-methylpyrimidin-5-yl)-N-(2,2,2-trifluoroethyl)picolinamide] | 0.67 nM
13 | Cc1ncc(-c2cn(C)nc2CO)c(OC[C@H]2C[C@@H]2c2ccccn2)n1 [Example 116, (1-methyl-4-(2-methyl-4-(((1S,2S)-2-(pyridin-2-yl)cyclopropyl)methoxy)pyrimidin-5-yl)-1H-pyrazol-3-yl)methanol] | 9.01 nM
14 | Cc1ncc(-c2ccc(C(C)(C)O)nc2)c(OC[C@H]2C[C@@H]2c2ncccc2C)n1 (single isomer, unassigned) [Example 174] | 8.42 nM
15 | COc1ccc([C@H]2C[C@@H]2COc2nc(C)ncc2C2(F)CCCCC2)nc1 [Example 211, 5-(1-fluorocyclohexyl)-4-(((1S,2S)-2-(5-methoxypyridin-2-yl)cyclopropyl)methoxy)-2-methylpyrimidine] | 19.4 nM
16 | COc1ccc([C@H]2C[C@@H]2COc2nc(C)ncc2-c2c[nH]nn2)nc1 [Example 245, 4-(((1S,2S)-2-(5-methoxypyridin-2-yl)cyclopropyl)methoxy)-2-methyl-5-(1H-1,2,3-triazol-4-yl)pyrimidine] | 1.36 nM
17 | COc1ccc([C@H]2C[C@@H]2COc2nc(C)ncc2-c2ccc(-c3noc(C)n3)cc2)nc1 [Example 251, 3-(4-(4-(((1S,2S)-2-(5-methoxypyridin-2-yl)cyclopropyl)methoxy)-2-methylpyrimidin-5-yl)phenyl)-5-methyl-1,2,4-oxadiazole] | 1.97 nM
18 | COc1ccc([C@H]2C[C@@H]2COc2nc(C)ncc2-c2ncno2)nc1 [Example 254, 5-(4-(((1S,2S)-2-(5-methoxypyridin-2-yl)cyclopropyl)methoxy)-2-methylpyrimidin-5-yl)-1,2,4-oxadiazole] | 22.9 nM
19 | COCCOc1ccc(-c2cnc(C)nc2OC[C@H]2C[C@@H]2c2ccc(C)cn2)cn1 [Example 57, 5-(6-(2-methoxyethoxy)pyridin-3-yl)-2-methyl-4-(((1S,2S)-2-(5-methylpyridin-2-yl)cyclopropyl)methoxy)pyrimidine] | 0.57 nM
20 | CCOC(=O)c1cnc(O)cc1-c1cnc(C)nc1OC[C@H]1C[C@@H]1c1ccc(OC)cn1 [Example 110, ethyl 6-hydroxy-4-(4-(((1S,2S)-2-(5-methoxypyridin-2-yl)cyclopropyl)methoxy)-2-methylpyrimidin-5-yl)nicotinate] | 41.6 nM
21 | COc1ccc([C@H]2C[C@@H]2COc2nc(C)ncc2-c2ccc(Br)cc2)nc1 [Example 81, 5-(4-bromophenyl)-4-(((1S,2S)-2-(5-methoxypyridin-2-yl)cyclopropyl)methoxy)-2-methylpyrimidine] | 4.97 nM
22 | Cc1ccc([C@H]2C[C@@H]2COc2nc(C)ncc2-c2cnsc2)nc1 [Example 62, 4-(2-methyl-4-(((1S,2S)-2-(5-methylpyridin-2-yl)cyclopropyl)methoxy)pyrimidin-5-yl)isothiazole] | 2.02 nM
23 | Cc1ccc([C@H]2C[C@@H]2COc2nc(C)ncc2C2CCCCC2)nc1 [Example 208, 5-Cyclohexyl-2-methyl-4-(((1S,2S)-2-(5-methylpyridin-2-yl)cyclopropyl)methoxy)pyrimidine] | 2.28 nM
24 | COc1ccc([C@H]2C[C@@H]2COc2nc(C)ncc2-c2cn(C)oc2=O)nc1 [Example 243, 4-(4-(((1S,2S)-2-(5-methoxypyridin-2-yl)cyclopropyl)methoxy)-2-methylpyrimidin-5-yl)-2-methylisoxazol-5(2H)-one] | 6.59 nM
25 | CCn1nnc(-c2ccc(-c3cnc(C)nc3OC[C@H]3C[C@@H]3c3ccc(OC)cn3)cn2)n1 [Example 232, 5-(6-(2-ethyl-2H-tetrazol-5-yl)pyridin-3-yl)-4-(((1S,2S)-2-(5-methoxypyridin-2-yl)cyclopropyl)methoxy)-2-methylpyrimidine] | 0.77 nM

Further lines, results first:

Row | Ki | Compound
26 | 0.39 nM | Cc1ccc([C@H]2C[C@@H]2COc2nc(C)ncc2-c2ccc3ncc(C)n3c2)nc1 [Example 130, 3-methyl-6-(2-methyl-4-(((1S,2S)-2-(5-methylpyridin-2-yl)cyclopropyl)methoxy)pyrimidin-5-yl)imidazo[1,2-a]pyridine]
27 | 0.63 nM | Cc1ccc([C@H]2C[C@@H]2COc2nc(C)ncc2-c2ccc3nccn3c2)nc1 [Example 137, 6-(2-methyl-4-(((1S,2S)-2-(5-methylpyridin-2-yl)cyclopropyl)methoxy)pyrimidin-5-yl)imidazo[1,2-a]pyridine]
28 | 0.02 nM | Cc1ccc(-c2cnc(C)nc2OC[C@H]2C[C@@H]2c2ccc3ccccc3n2)cn1 [Example 42, 2-((1S,2S)-2-((2-methyl-5-(6-methylpyridin-3-yl)pyrimidin-4-yloxy)methyl)cyclopropyl)quinoline]
29 | 0.02 nM | Cc1ncc(-c2cnc3[nH]ncc3c2)c(OC[C@H]2C[C@@H]2c2ccc3ccccc3n2)n1 (single isomer, unassigned) [Example 151]
30 | 1.41 nM | COc1ccc([C@H]2C[C@@H]2COc2nc(C)ncc2-c2ccc(C(N)=O)nc2)nc1 [Example 105, 5-(4-(((1S,2S)-2-(5-methoxypyridin-2-yl)cyclopropyl)methoxy)-2-methylpyrimidin-5-yl)picolinamide]
31 | 7.95 nM | CCc1ccc(-c2cnc(C)nc2OC[C@H]2C[C@@H]2c2ccc3ccccc3n2)cc1 (single isomer, unassigned) [Example 31]
32 | 0.01 nM | Cc1cc(-c2cnc(C)nc2OC[C@H]2C[C@@H]2c2ccc3ccccc3n2)ccn1 [Example 153, 2-((1S,2S)-2-((2-methyl-5-(2-methylpyridin-4-yl)pyrimidin-4-yloxy)methyl)cyclopropyl)quinoline]
33 | 0.2 nM | Cc1cccc([C@H]2C[C@@H]2COc2nc(C)ncc2-c2ccc(C(C)(C)O)nc2)n1 (single isomer, unassigned) [Example 175]
34 | 1.13 nM | Cc1ccc([C@H]2C[C@@H]2COc2nc(C)ncc2-c2ccc(F)c(C)c2)nc1 [Example 9, 5-(4-fluoro-3-methylphenyl)-2-methyl-4-(((1S,2S)-2-(5-methylpyridin-2-yl)cyclopropyl)methoxy)pyrimidine]
35 | 0.02 nM | Cc1ncc(-c2ccc3ncc(C)n3c2)c(OC[C@H]2C[C@@H]2c2ccc3ccccc3n2)n1 [Example 129, 2-((1S,2S)-2-((2-methyl-5-(3-methylimidazo[1,2-a]pyridin-6-yl)pyrimidin-4-yloxy)methyl)cyclopropyl)quinoline]
36 | 0.16 nM | CCC(O)c1ccc(-c2cnc(C)nc2OC[C@H]2C[C@@H]2c2ccc(C)cn2)cn1 (stereo partly drawn) [Example 143, 1-(5-(2-methyl-4-(((1S,2S)-2-(5-methylpyridin-2-yl)cyclopropyl)methoxy)pyrimidin-5-yl)pyridin-2-yl)propan-1-ol]
